Patent publication US20160346412A1, “A KIT FOR PREPARING A RADIOPHARMACEUTICAL” (THE SOUTH AFRICAN NUCLEAR ENERGY CORPORATION LIMITED, priority 2014, published 2016)

What was measured:
[1] = aqueous medium in the published syntheses; cited from earlier work
[2] = Stability of the ligand in water; format: physicochemical; conditions: free ligand versus metal-chelated ligand
Experimental: The production of kits of ECDG, a water labile ligand, is problematic as the normal kit procedure includes a lyophilisation step in the aqueous phase wherein the pure ligand active pharmaceutical ingredient (API) is dissolved in water/saline containing at least one each of a reducing agent, additive and buffer, distributed in vials and freeze dried. At the hospital the ^99mTc in saline is added to the kit and reconstituted. The ^99mTc is then chelated to the ECDG ligand and the ^99mTc-ECDG radiopharmaceutical is ready for injection.

Row | Compound | sensitivity to air, light, water and temperature [1] | stability in water [2]
1 | O=C(NC1C(O)O[C@H](CO)[C@@H](O)[C@@H]1O)C(CS)NCCN[C@@H](CS)C(=O)NC1C(O)O[C@H](CO)[C@@H](O)[C@@H]1O (stereo partly drawn) [ECDG, ethylenedicysteine deoxyglucosamine] | air, light, water and temperature sensitive | breaks down in water almost immediately
2 | O=C(NC1C(O)O[C@H](CO)[C@@H](O)[C@@H]1O)C1C[S][Tc]23(=[O])[S]C[C@@H](C(=O)NC4C(O)O[C@H](CO)[C@@H](O)[C@@H]4O)[N]2CC[N]13 (stereo partly drawn) [^99mTc-ECDG, ^99mTechnetium-ethylenedicysteine deoxyglucosamine] |  | stable in water
